{"source": "patent EP4817688A2", "about": "“DEGRADING PKCß1 TO TREAT CANCER” (Mayo Foundation for Medical Education and Research, priority 2020, dated 2022)", "key": {"[1]": {"experiment": "pharmacokinetics in female CD1 mice, plasma by UPLC-MS/MS", "type": "in vivo", "details": "plasma", "procedure": "ENDX PROTAC 7 and PROTAC 9 pharmacokinetics were characterized in female CD1 mice. Blood samples were collected from mice anesthetized under isoflurane via retro-orbital eye bleed into tubes containing EDTA and immediately chilled on ice. NaF was added to the EDTA collection tubes to help stabilize the drug in whole blood for the second IV and IP studies with ENDX PROTAC 9, and for the IV and oral studies with PROTAC 7. Plasma and red blood cells were separated immediately by centrifugation in a refrigerated centrifuge at 4°C. The plasma was transferred to a separate tube and immediately frozen at -20°C.\nFor IV dosing, ENDX PROTAC 9 was dissolved in 10% DMSO, 10% PEG 400, and 80% normal saline for a final concentration of 0.2 mg/mL ENDX PROTAC 9 for the 1 mg/kg IV doses. ENDX PROAC 7 was dissolved in 15% DMSO, 9.44% PEG400, and 55% normal saline for a final concentration of 0.19 mg/mL for the 1 mg/kg IV doses. Blood samples (3 mice per time-point) were collected 5 minutes, 15 minutes, 0.5 hour, 1 hour, 2 hours, 4 hours, 8 hours, and 24 hours after administration of the ENDX PROTAC. […] For oral dosing, ENDX PROTAC 9 (10 mg/kg) and ENDX PROTAC 7 (10 mg/kg) were suspended in 1 mM ascorbic acid:PEG400, 1:1 v/v for a final concentration of 1.0 mg/mL ENDX PROTAC. Blood samples (three mice per time-point) were collected 15 minutes, 0.5 hour, 1 hour, 2 hours, 4 hours, 6 hours, 8 hours, and 24 hours after administering the ENDX PROTAC. For I.P. dosing, ENDX PROTAC 9 (4 mg/kg) was prepared in 1 mM ascorbic acid:PEG400, 1:1 v/v for a final concentration of 0.4 mg/mL ENDX PROTAC 9. Blood samples (three mice per time-point) were collected 15 minutes, 0.5 hour, 1 hour, 2 hours, 4 hours, 6 hours, 8 hours, and 24 hours after administration. Plasma concentrations of ENDX PROTAC 7 and 9 were measured using UPLC-MS/MS."}, "MDAMB436 cells": {"system": "MDAMB436 cells", "experiment": "crystal violet (CV) proliferation assay, MDAMB436", "type": "cell-based", "details": "Homo sapiens, MDA-MB-436, MDAMB436 (PKCβ1^low, Rb^negative) 2000 cells", "procedure": "Cell proliferation rates were determined using crystal violet assays. One thousand cells per well were plated in 96 well tissue culture plates and treated the following day with a bifunctional compound or control for 7 days in replicates of 8. Cells were fixed with 25% glutaraldehyde for 10 minutes with shaking, washed 5 times with distilled water, stained with a 1% crystal violet solution (solubilized in 25% methanol) for 10 minutes, washed again 5 times and allowed to dry. De-staining was performed using […] sodium citrate in 50% ethanol followed by quantification using a 96 well spectrophotometer set at an absorbance of 550 nm."}}, "note": "Several values for one entry are separate records, joined by “and”; a condition that tells them apart may be missing. Equal values may be shown once.", "data": [{"smiles": "CCC(=C(c1ccc(O)cc1)c1ccc(OCCN(C)C(=O)COCCOCCNC(=O)Cc2ccc3c(c2)CN(C2CCC(=O)NC2=O)C3=O)cc1)c1ccccc1", "note": "(centres unmarked) [TC-Pr-009, 2-[2-(2-2-[2-(2,6-dioxopiperidin-3-yl)-1-oxo-2,3-dihydro-1H-isoindol-5-yl]acetamidoethoxy)ethoxy]-N-(2-4-[1-(4-hydroxyphenyl)-2-phenylbut-1-en-1-yl]phenoxyethyl)-N-methylacetamide]", "values": [{"measurement": "Concentration ENDX PROTAC 9", "setting": "[1]; IV 1 mg/kg, EDTA without NaF, 60 minutes, individual mice, listed as ENDX PROTAC 9, 1 mg/kg", "value": "0.5069 ng/mL and 0.2706 ng/mL and 0.0179 ng/mL"}, {"measurement": "Concentration ENDX PROTAC 9", "setting": "[1]; IV 1 mg/kg, EDTA without NaF, 120 minutes, individual mice, listed as ENDX PROTAC 9, 1 mg/kg", "value": "0.8988 ng/ml and 0.4446 ng/ml and BLD"}, {"measurement": "Concentration ENDX PROTAC 9", "setting": "[1]; IV 1 mg/kg, EDTA without NaF, 240 minutes, individual mice, listed as ENDX PROTAC 9, 1 mg/kg", "value": "BLD and 0.0197 ng/ml and 0.3141 ng/ml"}, {"measurement": "Concentration ENDX PROTAC 9", "setting": "[1]; IV 1 mg/kg, EDTA without NaF, 480 minutes, individual mice, listed as ENDX PROTAC 9, 1 mg/kg", "value": "0 ng/ml and BLD (2×)"}, {"measurement": "Concentration ENDX PROTAC 9", "setting": "[1]; IV 1 mg/kg, EDTA without NaF, 1440 minutes, individual mice, listed as ENDX PROTAC 9, 1 mg/kg", "value": "BLD and 0 ng/ml (2×)"}, {"measurement": "Concentration ENDX PROTAC 9", "setting": "[1]; IV 1 mg/kg, all data (both IV studies), 30 minutes, listed as ENDX PROTAC 9, 1 mg/kg", "value": 1.662, "unit": "ng/mL"}, {"measurement": "Concentration ENDX PROTAC 9", "setting": "[1]; IV 1 mg/kg, all data (both IV studies), 120 minutes, listed as ENDX PROTAC 9, 1 mg/kg", "value": "BLD"}, {"measurement": "Concentration ENDX PROTAC 9", "setting": "[1]; IV 1 mg/kg, all data (both IV studies), 240 minutes, listed as ENDX PROTAC 9, 1 mg/kg", "value": "BLD"}, {"measurement": "Concentration ENDX PROTAC 9", "setting": "[1]; IV 1 mg/kg, second study (NaF), 5 minutes, individual mice, listed as ENDX PROTAC 9, 1 mg/kg", "value": "86.31 ng/mL and 91.46 ng/mL and 34.87 ng/mL"}, {"measurement": "Concentration ENDX PROTAC 9", "setting": "[1]; IV 1 mg/kg, second study (NaF), 15 minutes, individual mice, listed as ENDX PROTAC 9, 1 mg/kg", "value": "8.2 ng/mL and 33.8 ng/mL and 10.72 ng/mL"}, {"measurement": "Concentration ENDX PROTAC 9", "setting": "[1]; IV 1 mg/kg, second study (NaF), 60 minutes, individual mice, listed as ENDX PROTAC 9, 1 mg/kg", "value": "1.18 ng/mL and 1.26 ng/mL and 12.64 ng/mL"}, {"measurement": "Concentration ENDX PROTAC 9", "setting": "[1]; IV 1 mg/kg, second study (NaF), 240 minutes, individual mice, listed as ENDX PROTAC 9, 1 mg/kg", "value": "0.19 ng/mL and 1.11 ng/mL and 0.39 ng/mL"}, {"measurement": "Concentration ENDX PROTAC 9", "setting": "[1]; PO 10 mg/kg, 15 minutes, individual mice, listed as ENDX PROTAC 9, 10 mg/kg", "value": "6.95 ng/mL and 4.77 ng/mL and 2.11 ng/mL"}, {"measurement": "Concentration ENDX PROTAC 9", "setting": "[1]; PO 10 mg/kg, 30 minutes, individual mice, listed as ENDX PROTAC 9, 10 mg/kg", "value": "0.58 ng/mL and 1.05 ng/mL"}, {"measurement": "Concentration ENDX PROTAC 9", "setting": "[1]; PO 10 mg/kg, 60 minutes, individual mice, listed as ENDX PROTAC 9, 10 mg/kg", "value": "6.78 ng/mL and 15.8 ng/mL and 10.6 ng/mL"}, {"measurement": "Concentration ENDX PROTAC 9", "setting": "[1]; PO 10 mg/kg, 120 minutes, individual mice, listed as ENDX PROTAC 9, 10 mg/kg", "value": "0.25 ng/ml and BLD* and 0.55 ng/ml"}, {"measurement": "Concentration ENDX PROTAC 9", "setting": "[1]; PO 10 mg/kg, 240 minutes, individual mice, listed as ENDX PROTAC 9, 10 mg/kg", "value": "0.9 ng/mL and 0.16 ng/mL and 0.14 ng/mL"}, {"measurement": "Concentration ENDX PROTAC 9", "setting": "[1]; PO 10 mg/kg, 360 minutes, individual mice, listed as ENDX PROTAC 9, 10 mg/kg", "value": "2.61 ng/ml and BLD and 0.05 ng/ml"}, {"measurement": "Concentration ENDX PROTAC 9", "setting": "[1]; PO 10 mg/kg, 480 minutes, individual mice, listed as ENDX PROTAC 9, 10 mg/kg", "value": "BLD"}, {"measurement": "Concentration ENDX PROTAC 9", "setting": "[1]; PO 10 mg/kg, 1440 minutes, individual mice", "value": "BLD"}, {"measurement": "Concentration ENDX PROTAC 9", "setting": "[1]; TABLE 7, titled PO pk (10 mg/kg), 15 minutes, individual mice, listed as ENDX PROTAC 9, 10 mg/kg", "value": "111.19 ng/mL and 133.09 ng/mL"}, {"measurement": "Concentration ENDX PROTAC 9", "setting": "[1]; TABLE 7, titled PO pk (10 mg/kg), 30 minutes, individual mice, listed as ENDX PROTAC 9, 10 mg/kg", "value": "156.42 ng/mL and 83.56 ng/mL"}, {"measurement": "Concentration ENDX PROTAC 9", "setting": "[1]; TABLE 7, titled PO pk (10 mg/kg), 60 minutes, individual mice, listed as ENDX PROTAC 9, 10 mg/kg", "value": "141.51 ng/mL and 93.93 ng/mL"}, {"measurement": "Concentration ENDX PROTAC 9", "setting": "[1]; TABLE 7, titled PO pk (10 mg/kg), 120 minutes, individual mice, listed as ENDX PROTAC 9, 10 mg/kg", "value": "60.32 ng/mL and 106.7 ng/mL and 40.51 ng/mL"}, {"measurement": "Concentration ENDX PROTAC 9", "setting": "[1]; TABLE 7, titled PO pk (10 mg/kg), 240 minutes, individual mice, listed as ENDX PROTAC 9, 10 mg/kg", "value": "17.29 ng/mL and 5.09 ng/mL and 30.55 ng/mL"}, {"measurement": "Concentration ENDX PROTAC 9", "setting": "[1]; TABLE 7, titled PO pk (10 mg/kg), 360 minutes, individual mice, listed as ENDX PROTAC 9, 10 mg/kg", "value": "1.64 ng/mL and 0.75 ng/mL and 2.62 ng/mL"}, {"measurement": "Concentration ENDX PROTAC 9", "setting": "[1]; TABLE 7, titled PO pk (10 mg/kg), 480 minutes, individual mice, listed as ENDX PROTAC 9, 10 mg/kg", "value": "7.23 ng/mL and 1.2 ng/mL"}, {"measurement": "Concentration ENDX PROTAC 9", "setting": "[1]; TABLE 7, titled PO pk (10 mg/kg), 1440 minutes, individual mice, listed as ENDX PROTAC 9, 10 mg/kg", "value": "1.01 ng/mL and 0.33 ng/mL and 0.12 ng/mL"}, {"measurement": "IC50", "setting": "MDAMB436 cells", "value": 64, "unit": "nM"}]}]}
